The text below walks through data of patent US20220016196A1, “Aloe Based Compositions Comprising Polysaccharides and Polyphenols for Regulation of Homeostasis of Immunity” (Unigen, Inc., priority 2020, published 2022).

The assay deals with C Reactive Protein (CRP). Description: LPS-induced acute lung injury, BAL C Reactive Protein ELISA. The class given is in vivo, rat. The conditions noted are these: rats. As for the experimental part: The study was designed to evaluate the direct impact of an Aloe-based composition (UP360) made in the Example 9 in alleviating LPS-induced acute lung injury administered orally at 500 mg/kg and 250 mg/kg. […] In this study, we treated rats with the test materials orally for 7 days before model induction with LPS. On the 8th day, an hour after oral treatment, LPS was instilled intratracheally (i.t.) at 10 mg/kg dissolved in 0.1 mL/100 g PBS to each rat. The normal control rats received the same volume i.t. PBS only.
We sacrificed surviving animals 24 hours after intratracheal LPS administration to the rats. At necropsy, collected bronchoalveolar lavage (BAL) by intratracheal injection of 1.5 mL PBS into the right lobe followed by gentle aspiration at least 3 times. Pooled recovered fluid, centrifuged at 1500 rpm for 10 min at 4 ° C., and was used to measure cytokines (e.g. IL-6) and pulmonary protein levels. […]
The presence of C Reactive Protein (CRP) in rat BAL diluted 1:1,000 was measured using the C Reactive Protein (PTX1) Rat ELISA kit from Abcam (product #: ab108827) as follows: 1:1,000 diluted BAL was added to a microplate coated with CRP antibody. […] After developing for 10 minutes at room temperature, a stop solution was added, and the absorbance was read at 450 nm. The concentration of CRP was calculated based on the absorbance readings of a CRP standard curve.
(ELISA stands for enzyme-linked immunosorbent assay.)

`CCCC(=O)[O-].[Na+]` [Sodium Butyrate]: under “LPS 10 mg/kg i.t., 24 hours post, oral, 500 mg/kg”, the “BAL CRP level, Mean ± SD” value is given as 20093.5 ± 8826.1 pg/mL. Moreover, the “reduction of BAL CRP vs vehicle” value (LPS i.t., 500 mg/kg oral) is reported as “minimal changes”.
